The text below walks through data of US6911454B1, “Method for potentiating primary drugs in treating multidrug resistant disease” (priority 1989, dated 2005).

Structures are written as SMILES. Where two headings read alike, the source gives them in different places.

Data set [1] in a line: L.D.50 by single escalating injections. In kind it is in vivo, mice. As for the experimental part: In addition, the effects of d-Tetrandrine-(S) plus doxorubicin in Nu/Nu athymic mice inoculated with DX20 sarcoma cells, 76×resistant when compared to the parent MES-SA cells were examined. Four cohorts of nude animals bearing the DX20 tumor were treated in groups of 5 (control, doxorubicin, d-tetrandrine, and doxorubicin+d-tetrandrine). […] (See FIG. 6). Tumor size was calculated using the formula (4 Pi/3) X*Y*2Z. […] An L.D.50 dose of 260 mg/kg was also calculated by administering single escalating injections of the compound. Tables I & II and FIG. 6 give the actual measurements.

The test system of data set [2] is CQ-sensitive (FCMSU1/Sudan) strain of P. falciparum. Briefly: 3H-adenosine incorporation, chloroquine-sensitive P. falciparum. Format: cell-based. The protocol: (§1) Chloroquine and qinghaosu are commonly used antimalarial drugs.
(§2) The dose (IC50) of each drug or each drug combination required to effect a 50% inhibition in the malarial activity of each strain was determined by establishing a dose response curve for each.
(§3) FCMSU1/Sudan strain and cloned Indochina (W-2) strain of P. falciparum were used. […] The two strains of the parasite were cultured according to the candle jar method of Trager and Jensen, Science, Vol. 193, pages 673-675 (1976). In a given experiment, four-day-old Petri dish cultures (approximately 10% parasitemia) were diluted with medium containing an amount of noninfected type A human erythrocytes to obtain a culture with a final hematocrit of 1.5% and parasitemia of 0.5-1.0%. The resulting culture was ready for addition to microtitration plates with ninety-six flat-bottom wells.
(§4) The testing procedure used was similar to that described by Desjardins et al. in “Antimicrobial Agents and Chemotherapy,” Vol. 16, pages 710-718 (1979). […] 25 microliters radioactive (0.5 microCi) [2,8-^3H] adenosine. The microtitration plates were incubated in a candle jar for an additional 18 hours, at 37° C.
(§5) As the malaria parasite grows ^3H-adenosine is metabolized and incorporates into polymeric RNA and DNA. The labeled polymers are trapped on glass fiber filters and unincorporated material is washed away. In the absence of drug there is 100% incorporation of the labeled material. When drugs interfere (directly or indirectly), an inhibitory dose of 50% (IC50) can be calculated. The experiments were repeated three times except where noted. Statistical analysis was done using Student's T-test for significance. Van Kyke et al. “Exp. Parasitol,” Vol. 64, pages 418-423 (1987).
(§6) The test procedure was basically the same as outlined above.

The test system of data set [3] is CQ-resistant (W-2) strain of P. falciparum. Nature of the data set: 3H-adenosine incorporation, chloroquine-resistant P. falciparum. Format: cell-based. As for the experimental part:
as §1, §2, §3, §4, §5, §6

Compound `COc1ccc2cc1Oc1ccc(cc1)C[C@H]1c3cc(c(OC)cc3CCN1C)Oc1c(OC)c(OC)cc3c1[C@H](C2)N(C)CC3` [TT, tetrandrine] displayed a L.D.50 dose in data set [1] of 260 mg/kg. Besides, the IC50 was found to be 114 ± 23 nM in data set [2] (S STRAIN, TT/CQ 10:1, mean ± S.D, read-out: IC50 DRUG COMBINATION TT(2.0 uM) CQ(0.2 uM)); 114 ± 6.3 nM in data set [2] (S STRAIN, TT/QHS 10:1, mean ± S.D, read-out: IC50 DRUG COMBINATION TT(2.0 uM) QHS(0.2 uM)); 498 ± 93.7 nM in data set [2] (Table III, S STRAIN, mean ± S.D, read-out: IC50 SINGLE DRUG); 410 ± 69 nM in data set [2] (Table IV, S STRAIN, mean ± S.D, read-out: IC50 SINGLE DRUG); 290 nM in data set [2] (Table VII, chloroquine-sensitive strain, drug alone, read-out: IC50 S); 54.9 ± 7.1 nM in data set [2] (read-out: IC50 DRUG COMBINATION TT(1.0 uM) CQ(0.3 uM), S STRAIN, TT/CQ 10:3, mean ± S.D). The IC50 was determined as 71.9 ± 8.9 nM in data set [2] (read-out: IC50 DRUG COMBINATION TT(1.0 uM) QHS(0.3 uM), S STRAIN, TT/QHS 10:3, mean ± S.D); 223 ± 38.6 nM in data set [2] (read-out: IC50 DRUG COMBINATION TT(3.0 uM) CQ(0.1 uM), S STRAIN, TT/CQ 30:1, mean ± S.D); 220 ± 35.5 nM in data set [2] (read-out: IC50 DRUG COMBINATION TT(3.0 uM) QHS(0.1 uM), S STRAIN, TT/QHS 30:1, mean ± S.D); 79.5 ± 16.1 nM in data set [3] (R STRAIN, TT/CQ 10:1, mean ± S.D, read-out: IC50 DRUG COMBINATION TT(2.0 uM) CQ(0.2 uM)); 71.8 ± 13.8 nM in data set [3] (R STRAIN, TT/QHS 10:1, mean ± S.D, read-out: IC50 DRUG COMBINATION TT(2.0 uM) QHS(0.2 uM)); 198 ± 24.7 nM in data set [3] (Table III, R STRAIN, mean ± S.D, read-out: IC50 SINGLE DRUG). For the same compound, the IC50 in data set [3] (Table IV, R STRAIN, mean ± S.D, read-out: IC50 SINGLE DRUG) stood at 206 ± 49.8 nM; in data set [3] (Table VII, chloroquine-resistant strain, drug alone, read-out: IC50 R) it was 120 nM; in data set [3] (read-out: IC50 DRUG COMBINATION TT(1.0 uM) CQ(0.3 uM), R STRAIN, TT/CQ 10:3, mean ± S.D), 79.5 ± 13.7 nM; in data set [3] (read-out: IC50 DRUG COMBINATION TT(1.0 uM) QHS(0.3 uM), R STRAIN, TT/QHS 10:3, mean ± S.D), 59.6 ± 13.7 nM; in data set [3] (read-out: IC50 DRUG COMBINATION TT(3.0 uM) CQ(0.1 uM), R STRAIN, TT/CQ 30:1, mean ± S.D), 125 ± 9.6 nM; in data set [3] (read-out: IC50 DRUG COMBINATION TT(3.0 uM) QHS(0.1 uM), R STRAIN, TT/QHS 30:1, mean ± S.D), 137 ± 41.6 nM.
